# Measured values taken from patent US7981878B2, “Tumor treatment with gliotoxin derivatives” (priority 2005, dated 2011).
# Experiments:
# [1] = system: K562 (CML); assay: Apoptosis FACS in leukaemia cell line K562; format: cell-based; details: K562, 0.2 μM gliotoxin, 24 h
# Experimental: FIG. 7: (A) The apoptotic activity of gliotoxin on further B-CLL patient samples (CLL4-CLL8) is illustrated. The (non-Notch2-associated) leukaemia cell lines (or the leukaemia cell lines not characterised by ligand-independent Notch2 fragments) Jurkat (T-ALL), SH1 (hairy cell carcinoma), RL-7 and K562 (CML) are resistant to a treatment with 0.2 μM (corresponding to 60 ng/ml) of gliotoxin. Cells were incubated for 24 h+/−gliotoxin, and the percentage of apoptotic cells (probidium-iodide+/annexinV+) was determined by means of FACS analysis. In none of the 4 non-Notch2-associated cell lines indicated, the application of 0.2 μM of gliotoxin led to a significant induction of apoptosis within 24 hours. The cytotoxic effect of Gliotoxin correlates with the Notch2 activity in leukemias. (B) Corresponding EMSA showing the activity of Notch2 in B-CLL cells and in leukemic cell lines (Jurkat, SH1, RL7, and K562).
# [2] = system: 518A2 melanoma xenograft; assay: 518A2 melanoma nude mouse xenograft model; format: in vivo
# Text: FIG. 9: Effects of gliotoxin in a 518A2 melanoma nude mouse xenograft model. 518 A2 cells (9×10^6) were inoculated into the lower right and left flank of each mouse. […] The flexible dose and treatment schedule of each group are given in the squares next to each group in the figure. All data are given as mean tumour volumes ±95% CI. The dotted arrows indicate a significant decrease of tumour volume (Wilcoxon matched pairs test, P<0.05) within Group 2 and Group 4 three days after application of 5 mg-0-2.5 mg of gliotoxin. It was shown that even at late administrations with progressed tumours gliotoxin administration is effective group 4 (ip administration at day 25).
# Pathogen-free, 4-6 week old, female athymic nude mice (Harlan Winkelmann, Borchen, Germany) were housed under sterile conditions and treated according to the regulations of the local animal welfare committee. Hundred μl of a tumour cell suspension in DPBS containing 9×10^6 518A2 cells were inoculated into the lower right and left flank of each mouse. When mean tumour volume reached approximately 75 mm^3 (based on caliper measurements), mice (n=8/control group, n=6/treatment group) were randomly assigned to treatment groups and received one of the following treatment regimens:
# Control (2% DMSO), Group 1 (start dose 1 mg/kg i.p.), Group 2 (start dose 5 mg/kg i.v.), and Group 3 (start dose 5 mg ip) and Group 4 (start dose 7 mg s.c.).
# Flexible explorative dosing schedule was used in this in vivo trial: At baseline, all treatment groups received their respective start dose to estimate immediate toxicity of gliotoxin. Beginning with day 4:
# Group 1 received 1 mg/kg daily including day 19.
# Group 2 received 5 mg i.v. at day 4 and day 7 followed by 5 mg-0-2.5 mg ip at day 11
# Group 3 received 5 mg/kg i.p. once weakly including day 18.
# Group 4 remained untreated until day 25 and received then 5 mg-0-2.5 mg once only. The trial was stopped when control mice reached a mean tumour volume of 1000 mm^3.
# In the xenograft melanoma model, tumour volume of each group is given as mean±95% confidence interval. The anti-tumour effect of gliotoxin was described as tumour volume of treatment group/tumour volume of control group×100 (T/C).
# [3] = system: Notch2 (N2^IC); assay: Nuclear Notch2 activity in B-CLL cells by EMSA (band shift assay); format: cell-based, human; details: B-CLL cells, 0.2 μM gliotoxin, 24 h
# Experimental: FIG. 3: Gliotoxin is a potent Notch2 trans-activation inhibitor in B-CLL cells. (A) EMSA showing the inhibition of DNA-bound Notch2IC complexes in the presence of 0.2 μg Gliotoxin. B-CLL samples (n=10) were cultured in the presence of 1 ng/ml TPA with or without 0.2 μM Gliotoxin for 24 hours. Nuclear extracts were subjected to EMSA using a oligonucleotide probe spanning a well defined CBF1/NotchIC binding site derived from the CD23a promoter. (B). Corresponding FACS analysis (plus 10 additional B-CLL samples) showing the downregulation of the Notch2 target gene CD23 as well as the induction of apoptosis of Gliotoxin treated B-CLL samples. Columnes represent the percentage of CD19^+CD23^+ (grey bars) and apoptotic cells (black bars: including early apoptotic cells single positive for AnnexinV, and late apoptotic cells double positive for AnnexinV and probidium iodide), respectively.
# As drug screening model, a cell culture system was established which conserves the phenotype of freshly isolated B-CLL cells (3×10^6 B-CLL cells/ml RPMI medium+10% FCS, supplemented with 1 ng/ml of TPA). Notch2 activity in the cell nucleus is determined by means of EMSA (electrophoretic mobility shift assay) experiments, and the cell viability (Probidium iodide/annexinV) and CD23 expression (Notch2 target gene) is determined by means of FACS (flow cytometry) analyses, respectively. […]
structure (smiles),measurement,setting,value
"CN1C(=O)[C@]23CC4=CC=C[C@H](O)[C@H]4N2C(=O)[C@@]1(CO)SS3 [gliotoxin, [3R-(3α,5aβ,6β,10aα)]-2,3,5a,6-tetrahydro-6-hydroxy-3-(hydroxymethyl)-2-methyl-10H-3,10a-epi-dithiopyrazino[1,2-a]indol-1,4-dion]",induction of apoptosis (probidium-iodide+/annexinV+),[1],resistant
same,T/C (tumour volume of treatment group/control group×100),"[2]; Group 1, 1 mg/kg i.p. daily until day 19, day 21",37%
same,T/C (tumour volume of treatment group/control group×100),"[2]; Group 2, 3×5 mg iv within 7 days then 1×5 mg-0-2.5 mg ip day 11, day 21",32%
same,mean tumour volume,"[2]; Group 2, day 11 (before application of 5 mg-0-2.5 mg)",115 mm^3
same,mean tumour volume,"[2]; Group 2, day 15 (after application of 5 mg-0-2.5 mg at day 11)",83 mm^3
same,T/C (tumour volume of treatment group/control group×100),"[2]; Group 3, 5 mg/kg i.p. weekly until day 18, day 21",49%
same,T/C (tumour volume of treatment group/control group×100),"[2]; Group 4, 5 mg-0-2.5 mg once at day 25, day 32",23%
same,toxicity after subcutaneous application,"[2]; Group 4, 7 mg/kg s.c. start dose, nude mice",severe local toxicity
same,mean tumour volume,"[2]; Group 4, day 25 (before application of 5 mg-0-2.5 mg)",576 mm^3
same,mean tumour volume,"[2]; Group 4, day 28 (after application of 5 mg-0-2.5 mg at day 25)",218 mm^3
same,T/C (tumour volume of treatment group/control group×100),"[2]; Group 4, single 7 mg/kg s.c. start dose, then untreated, day 25",92%
same,transcriptional Notch2 activity (EMSA),[3],dramatic loss
